Some test systems named below: BT-549 breast; CAKI-1 renal; COLO 205 colon; HOP-92 NSCLC; MDA-N; NCI-H522 lung; OVCAR-3 ovarian; OVCAR-5 ovarian; SK-MEL-2 melanoma; SK-OV-3 ovarian.
Common to all, as to experiment: NCI anticancer screen, dose series, 48 h

The text below walks through data of PubChem BioAssay (NCI).

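How tested: cells in 96-well plates exposed to compound for 48 hours at five concentrations. GI50: concentration for 50% inhibition of growth. At the TGI there is no net growth.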 A value given as a limit tells only on which side of the number the result lay.

For the molecule `CCn1c(=O)c2nc(SC)sc2n(-c2ccc(C)cc2)c1=O`, the GI50 in the experiment with BT-549 breast is 33 µM; in the experiment with CAKI-1 renal, above 100 µM. The TGI in the experiment with BT-549 breast, in the experiment on CAKI-1 renal, in the experiment on COLO 205 colon, in the experiment with HOP-92 NSCLC, in the experiment on MDA-N and with NCI-H522 lung was above 100 µM throughout. Besides, the TGI in the experiment on OVCAR-3 ovarian, in the experiment on OVCAR-5 ovarian, in the experiment with SK-MEL-2 melanoma and in the experiment on SK-OV-3 ovarian was above 100 µM in each case.

As for `COC(=O)c1ccccc1C1CN=NC12Cc1c(ccc3c1CCC3)C2=O` (configuration not stated), the TGI in the experiment on BT-549 breast is above 100 µM; in the experiment with CAKI-1 renal it was above 100 µM; in the experiment with COLO 205 colon, above 100 µM; in the experiment with HOP-92 NSCLC it was above 100 µM; in the experiment with MDA-N, 49.5 µM; in the experiment on NCI-H522 lung it was 43.7 µM. Besides, the TGI with OVCAR-3 ovarian, in the experiment with OVCAR-5 ovarian, with SK-MEL-2 melanoma and in the experiment on SK-OV-3 ovarian was above 100 µM in each case.

As for `Cc1cccc2c(N)c3cccc(C(=O)NCC[N+](C)(C)Cc4ccc([N+](=O)[O-])s4)c3nc12`, the TGI in the experiment on BT-549 breast is above 70.5 µM; in the experiment on CAKI-1 renal, above 73.8 µM; in the experiment with COLO 205 colon it was 21.4 µM; in the experiment with HOP-92 NSCLC, 68.8 µM; in the experiment with MDA-N, 49.9 µM; in the experiment with NCI-H522 lung, 28.2 µM. The TGI was 49.6 µM with OVCAR-3 ovarian, above 61.2 µM with OVCAR-5 ovarian, above 77.6 µM in the experiment on SK-MEL-2 melanoma and above 75.9 µM in the experiment with SK-OV-3 ovarian.

Turning to `c1nc(NCCc2cnc[nH]2)c2[nH]cnc2n1`, the TGI with BT-549 breast, with CAKI-1 renal, with COLO 205 colon, in the experiment with HOP-92 NSCLC, in the experiment with MDA-N and in the experiment with NCI-H522 lung was above 100 µM each time. Moreover, the TGI in the experiment on OVCAR-3 ovarian, in the experiment with OVCAR-5 ovarian, in the experiment with SK-MEL-2 melanoma and in the experiment with SK-OV-3 ovarian was above 100 µM in each case.

As for `C=C(C(=O)O[C@H]1C/C(C)=C/CC/C(CO)=C/[C@H]2C(=O)OC(=C)[C@H]12)C(O)CO` (some centres not stated), the TGI in the experiment on BT-549 breast is 30.2 µM; in the experiment with CAKI-1 renal, 9.1 µM; with COLO 205 colon, 13.4 µM; in the experiment on HOP-92 NSCLC it was 31.4 µM; in the experiment on MDA-N it was 25.3 µM; with NCI-H522 lung, 3.3 µM. Also, the TGI was 22.8 µM in the experiment with OVCAR-3 ovarian, 33 µM in the experiment with OVCAR-5 ovarian, 29.6 µM in the experiment with SK-MEL-2 melanoma and 35.1 µM in the experiment with SK-OV-3 ovarian.

`CCCCc1ccc(Nc2ncc3ncn(COCCO)c3n2)cc1`: the TGI in the experiment with BT-549 breast is above 100 µM; with CAKI-1 renal it was above 100 µM; with COLO 205 colon it was above 100 µM; in the experiment with HOP-92 NSCLC it was 92.8 µM; in the experiment on MDA-N it was above 100 µM; with NCI-H522 lung it was above 100 µM. Moreover, the TGI is 90.9 µM with OVCAR-3 ovarian, above 100 µM in the experiment with OVCAR-5 ovarian, 73.1 µM with SK-MEL-2 melanoma and above 100 µM in the experiment with SK-OV-3 ovarian.

For the molecule `CSC(=S)Nc1cc(C)cc(C)n1`, the TGI in the experiment with BT-549 breast is above 100 µM; with CAKI-1 renal it was above 31.6 µM; in the experiment with COLO 205 colon, above 31.6 µM; with HOP-92 NSCLC, above 31.6 µM; in the experiment on MDA-N, above 31.6 µM; in the experiment with NCI-H522 lung it was above 31.6 µM. Besides, the TGI in the experiment with OVCAR-3 ovarian, in the experiment on OVCAR-5 ovarian, with SK-MEL-2 melanoma and in the experiment on SK-OV-3 ovarian was above 31.6 µM in each case.

Take `COc1cc2ccc(C(=O)NCCCNC(=O)c3ccc4cc(OC)c(OC)cc4c3)cc2cc1OC`: the TGI with BT-549 breast, in the experiment on CAKI-1 renal, in the experiment with COLO 205 colon, in the experiment on HOP-92 NSCLC, in the experiment on MDA-N and in the experiment with NCI-H522 lung was above 100 µM in each case. In addition, the TGI in the experiment on OVCAR-3 ovarian, in the experiment with OVCAR-5 ovarian, with SK-MEL-2 melanoma and in the experiment with SK-OV-3 ovarian was above 100 µM in each case.

Take `CC[C@@]1(O)C(=O)OCc2c1cc1n(c2=O)Cc2c-1nc1ccc(O)cc1c2[Si](C)(C)C(C)(C)C`: the TGI is 1.17 µM with BT-549 breast; below 0.0137 µM in the experiment on CAKI-1 renal; 1.53 µM in the experiment on COLO 205 colon; 2.31 µM in the experiment with HOP-92 NSCLC; 4.63 µM in the experiment with MDA-N; 0.135 µM with NCI-H522 lung. Also, the TGI is 0.0752 µM with OVCAR-3 ovarian, 2.58 µM in the experiment on OVCAR-5 ovarian, 0.786 µM in the experiment on SK-MEL-2 melanoma and above 53 µM with SK-OV-3 ovarian.

Turning to `CCCC[C@@H](C)/C=C1\CN2CCC[C@H]2[C@@](C)(OCc2ccccc2)[C@@H]1O`, the TGI with BT-549 breast, in the experiment with CAKI-1 renal, in the experiment with COLO 205 colon, in the experiment on HOP-92 NSCLC, with MDA-N and with NCI-H522 lung was above 50 µM each time. Moreover, the TGI in the experiment on OVCAR-3 ovarian is above 28.7 µM; in the experiment with OVCAR-5 ovarian it was above 50 µM; with SK-MEL-2 melanoma, above 50 µM; with SK-OV-3 ovarian, above 50 µM.

Turning to `O[C@@H]1C=C[C@]23CCN(Cc4cc5c(cc42)OCO5)[C@@H]3C1`, the TGI in the experiment on BT-549 breast, in the experiment on CAKI-1 renal, in the experiment with COLO 205 colon, in the experiment on HOP-92 NSCLC, in the experiment on MDA-N and in the experiment on NCI-H522 lung was above 100 µM each time. Besides, the TGI in the experiment with OVCAR-3 ovarian, in the experiment with OVCAR-5 ovarian, with SK-MEL-2 melanoma and with SK-OV-3 ovarian was above 100 µM throughout.

Turning to `O=C1COc2cc(N3CCN(c4cccc(C(F)(F)F)c4)CC3)ccc2N1`, the TGI in the experiment on BT-549 breast, in the experiment with CAKI-1 renal, in the experiment with COLO 205 colon, with HOP-92 NSCLC, in the experiment with MDA-N and in the experiment on NCI-H522 lung was above 100 µM in each case. The TGI in the experiment with OVCAR-3 ovarian, with OVCAR-5 ovarian, in the experiment on SK-MEL-2 melanoma and in the experiment on SK-OV-3 ovarian was above 100 µM in each case.

In the case of `Cc1cn(C2CCC(CO)(CF)O2)c(=O)[nH]c1=O` (configuration not stated), the TGI in the experiment with BT-549 breast, in the experiment with CAKI-1 renal, with COLO 205 colon, in the experiment with HOP-92 NSCLC, in the experiment with MDA-N and with NCI-H522 lung was above 100 µM throughout. In addition, the TGI in the experiment with OVCAR-3 ovarian, in the experiment with OVCAR-5 ovarian, in the experiment on SK-MEL-2 melanoma and in the experiment on SK-OV-3 ovarian was above 100 µM in each case.
